Measured values from PubChem BioAssay AID1963427 (Molecular Pharmacology Branch, DTP, NCI, 2024).

System: 317291-083-R-J1-PDC complex spheroid growth
Test: Anticancer human tumor 317291-083-R-J1-PDC patient-derived soft tissue sarcoma cell line growth inhibition [Asc]
Details: for IC50: curve of first compound; for viability, T/C: stronger effect = lower value
Summary of the method: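 Tumor cells were grown as multicellular spheroids with stromal HUVEC and mesenchymal stem cells and treated singly or in combination. Concentrations fell in half-log steps from the clinical Cmax, or from 10 microM where none was known.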
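Note: compound exposure lasted seven days after spheroids formed for three days.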
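Throughout, for viability, T/C: 100% = DMSO vehicle control wells.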

SMILES: O=C(c1cc(Cc2n[nH]c(=O)c3ccccc23)ccc1F)N1CCN(C(=O)C2CC2)CC1 + CNC(C)C(=O)NC1CN(S(=O)(=O)c2cccc(S(=O)(=O)N3CCC4CCC(C(=O)NC(c5ccccc5)c5ccccc5)N4C(=O)C(NC(=O)C(C)NC)C3)c2)CCC2CCC(C(=O)NC(c3ccccc3)c3ccccc3)N2C1=O
- IC50 (second compound 0.00316 µM): < 31.6 nM
- IC50 (second compound 0.01 µM): < 31.6 nM
- IC50 (second compound 0.0316 µM): 3590 nM
- IC50 (second compound 0.1 µM): 743 nM
- IC50 (second compound 0.316 µM): 31.6 nM
- IC50 (second compound 1 µM): < 31.6 nM
- viability, T/C (second compound 0.00316 µM, first compound 0.0316 µM): 4.34%
- viability, T/C (second compound 0.00316 µM, first compound 0.1 µM): 4.85%
- viability, T/C (second compound 0.00316 µM, first compound 0.316 µM): 5.04%
- viability, T/C (second compound 0.00316 µM, first compound 1 µM): 5.11%
- viability, T/C (second compound 0.00316 µM, first compound 3.16 µM): 4.26%
- viability, T/C (second compound 0.00316 µM, first compound 10 µM): 4.12%
- viability, T/C (second compound 0.01 µM, first compound 0.0316 µM): 37%
- viability, T/C (second compound 0.01 µM, first compound 0.1 µM): 43.8%
- viability, T/C (second compound 0.01 µM, first compound 0.316 µM): 55.6%
- viability, T/C (second compound 0.01 µM, first compound 1 µM): 33.9%
- viability, T/C (second compound 0.01 µM, first compound 3.16 µM): 16.4%
- viability, T/C (second compound 0.01 µM, first compound 10 µM): 16.1%
- viability, T/C (second compound 0.0316 µM, first compound 0.0316 µM): 65.5%
- viability, T/C (second compound 0.0316 µM, first compound 0.1 µM): 67.9%
- viability, T/C (second compound 0.0316 µM, first compound 0.316 µM): 62%
- viability, T/C (second compound 0.0316 µM, first compound 1 µM): 58.1%
- viability, T/C (second compound 0.0316 µM, first compound 3.16 µM): 55.2%
- viability, T/C (second compound 0.0316 µM, first compound 10 µM): 23.9%
- viability, T/C (second compound 0.1 µM, first compound 0.0316 µM): 78.5%
- viability, T/C (second compound 0.1 µM, first compound 0.1 µM): 71.3%
- viability, T/C (second compound 0.1 µM, first compound 0.316 µM): 57.7%
- viability, T/C (second compound 0.1 µM, first compound 1 µM): 54.7%
- viability, T/C (second compound 0.1 µM, first compound 3.16 µM): 23.4%
- viability, T/C (second compound 0.1 µM, first compound 10 µM): 34.9%
- viability, T/C (second compound 0.316 µM, first compound 0.0316 µM): 52%
- viability, T/C (second compound 0.316 µM, first compound 0.1 µM): 44.4%
- viability, T/C (second compound 0.316 µM, first compound 0.316 µM): 44.8%
- viability, T/C (second compound 0.316 µM, first compound 1 µM): 50.8%
- viability, T/C (second compound 0.316 µM, first compound 3.16 µM): 17.4%
- viability, T/C (second compound 0.316 µM, first compound 10 µM): 21.4%
- viability, T/C (second compound 1 µM, first compound 0.0316 µM): 34.3%
- viability, T/C (second compound 1 µM, first compound 0.1 µM): 47.7%
- viability, T/C (second compound 1 µM, first compound 0.316 µM): 34.8%
- viability, T/C (second compound 1 µM, first compound 1 µM): 27.9%
- viability, T/C (second compound 1 µM, first compound 3.16 µM): 13.2%
- viability, T/C (second compound 1 µM, first compound 10 µM): 13.8%
